From patent US20060127317A1, “Nasallly applicable pharmaceutical preparation and the production thereof” (priority 2002, published 2006)

Test system: ciliated epithelium of the trachea of chicken embryos
Assay: standard test for examining ciliary function (ciliary frequency of tracheal ciliated epithelium tissue pieces)
Format: cell-based
Settings: orienting tests; compared with results of table 2
Excerpt: In a standard test for examining ciliary function, a conventional preparation for nasal administration having a phosphate/citrate buffer and benzalkonium chloride as preservative was compared in each case with a preparation of the invention having malic acid as buffer and benzalkonium chloride as preservative.
Pieces of tissue from ciliated epithelium of the trachea of chicken embryos are employed in the tests on which the comparison is based, reference being made for details of the tests to S. G. Romejn et al., Int. J. of Pharmac. 135 (1996) 137-145 and van De Donk et al., Rhinology, 20 (1982) 81-87.
The self-cleaning of the nasal mucosa is then simulated by washing out the respective solutions and adding Ringer's solution for 45 min.
After exposure for 15 min, the ciliary frequency is reduced distinctly less by the exemplary solutions with malic acid buffer than by the reference solutions. The self-cleaning of the nasal mucosa is then simulated by washing out the test solutions and adding Ringer's solution for 45 min. A distinctly better recovery of the ciliary beating force, which extends to more than ¾ of the initial beating force (of 100%), is achieved thereby with the exemplary solutions with malic acid buffer. […]

Compound	reduction in ciliary activity and regeneration of the cilia (result in words)
calcitonin [calcitonin (from salmon)]	similar
O=C(O)c1cc(=O)c2c(OCC(O)COc3cccc4oc(C(=O)O)cc(=O)c34)cccc2o1 [cromoglicic acid]	similar
